From patent US5202319A, “Substituted 3-amino-2,3,4,5-tetrahydro-1-aryloxy-3-benzazepines” (Hoechst-Roussel Pharmaceuticals Inc., priority 1991, dated 1993)
Structures can show the parent of a compound that is named as a salt.

How the values were obtained:
[^3 H]-5HT transport = CNS tissue; cited from earlier work
[1] = in vivo; cited from earlier work
5HT uptake sites = conditions: in vitro; cited from earlier work
serotonin (5HT) uptake = experiment: 3H-Serotonin Uptake in Rat Whole Brain and Hypothalamic Synaptosomes; assay type: biochemical; conditions: 50 nM 3H-5HT, 37° C., 5 minutes, log-probit analysis, read-out: Inhibition of ^3 H-serotonin Uptake IC50
Procedure: A. Animals: Male CR Wistar rats (100-125 g).
3. […] This is used to dilute the specific activity of radiolabeled 5HT.
The final desired concentration of ^3 H-5HT in the assay is 50 nM. The dilution factor is 0.8.
Male Wistar rats are decapitated and the brain rapidly removed. […] Homogenization should be done with 4-5 up and down strokes at medium speeds to minimize synaptosome lysis. […] The supernatant (S1) is decanted and is used for uptake experiments.
Tubes are incubated at 37° C. under a 95% O2 /5% CO2 atmosphere for 5 minutes. For each assay, 3 tubes are incubated with 20 μl of vehicle at 0° C. in an ice bath. After incubation all tubes are immediately centrifuged at 4000 g for 10 minutes. The supernatant fluid is aspirated and the pellets dissolved by adding 1 ml of solubilizer (Triton X-100+50% EtOH, 1:4 v/v). […] Active uptake is the difference between cpm at 37° C. and 0° C. […] IC50 values are derived from log-probit analysis.

5HT uptake = conditions: cited from earlier work

Compound: C[C@@H]1O[C@@H](O[C@H]2C[C@@H](O)[C@]3(CO)[C@H]4[C@H](O)C[C@]5(C)[C@@H](C6=CC(=O)OC6)CC[C@]5(O)[C@@H]4CC[C@]3(O)C2)[C@H](O)[C@H](O)[C@H]1O [ouabain]
- inhibition of [^3 H]-5HT transport ([^3 H]-5HT transport): inhibited

Compound: O=c1n(CCCN2CCN(c3cccc(Cl)c3)CC2)nc2ccccn12 [Trazodone]
- clinical effectiveness [1]: clinically effective antidepressants

Compound: CN(C)CCCN1c2ccccc2CCc2ccccc21 [[^3 H]-imipramine]
- [^3 H]-imipramine binding (5HT uptake sites): labels 5HT uptake sites

Compound: NN1CCc2ccccc2C(Oc2ccc(C(F)(F)F)cc2)C1 (stereo not drawn) [3-Amino-2,3,4,5-tetrahydro-1-(4-trifluoromethylphenoxy)-3-benzazepine maleate]
- IC50 (serotonin (5HT) uptake): 9.36 µM

Compound: COc1cc2c(cc1OC)C(Oc1ccccc1)CN(N)CC2 (stereo not drawn) [3-Amino-7,8-dimethoxy-1-phenoxy-2,3,4,5-tetrahydro-3-benzazepine maleate]
- IC50 (serotonin (5HT) uptake): 2.13 µM

Compound: CN(C)C/C=C(/c1ccc(Br)cc1)c1cccnc1 [zimelidine]
- effects on 5HT uptake (5HT uptake): fairly selective effects on 5HT uptake
